Tested on: 565726-208-R1-J5-PDC complex spheroids, growth inhibition
Assay: Anticancer human tumor 565726-208-R1-J5-PDC patient-derived pancreatic adenocarcinoma cell line growth inhibition [RAS]
Details: for IC50: curve of first compound; for viability, T/C: stronger effect = lower value
In short: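 Multi-cell-type spheroids: tumor cells plus HUVEC endothelial cells and mesenchymal stem cells. RAS-pathway inhibitors were combined with targeted agents, each dosed in half-log steps down from clinical Cmax, or from 10 microM when Cmax was unknown.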

[1] = second compound 0.00316 µM, first compound 0.0316 µM
[2] = second compound 0.00316 µM, first compound 0.1 µM
[3] = second compound 0.00316 µM, first compound 0.316 µM
[4] = second compound 0.00316 µM, first compound 1 µM
[5] = second compound 0.01 µM, first compound 0.0316 µM
[6] = second compound 0.01 µM, first compound 0.1 µM
[7] = second compound 0.01 µM, first compound 0.316 µM
[8] = second compound 0.01 µM, first compound 1 µM
[9] = second compound 0.0316 µM, first compound 0.0316 µM
[10] = second compound 0.0316 µM, first compound 0.1 µM
[11] = second compound 0.0316 µM, first compound 0.316 µM
[12] = second compound 0.0316 µM, first compound 1 µM
[13] = second compound 0.1 µM, first compound 0.0316 µM
[14] = second compound 0.1 µM, first compound 0.1 µM
[15] = second compound 0.1 µM, first compound 0.316 µM
[16] = second compound 0.1 µM, first compound 1 µM
[17] = second compound 0.316 µM, first compound 0.0316 µM
[18] = second compound 0.316 µM, first compound 0.1 µM
[19] = second compound 0.316 µM, first compound 0.316 µM
[20] = second compound 0.316 µM, first compound 1 µM
[21] = second compound 1 µM, first compound 0.0316 µM
[22] = second compound 1 µM, first compound 0.1 µM
[23] = second compound 1 µM, first compound 0.316 µM
[24] = second compound 1 µM, first compound 1 µM
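Note: spheroids exposed to compounds for seven days before readout.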
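Throughout, for viability, T/C: 100% = DMSO vehicle control viability.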

CC1(O)CCCC1n1c(=O)c(C(F)F)cc2cnc(NC3CCN(S(C)(=O)=O)CC3)nc21 (centres undefined) + C=CC(=O)N1CCN(c2nc(OCC3CCCN3C)nc3c(F)c(-c4nc(N)cc(C)c4C(F)(F)F)c(Cl)cc23)C(C)C1
IC50 (second compound 0.00316 µM): 4.25 µM
IC50 (second compound 0.01 µM): 3.86 µM
IC50 (second compound 0.0316 µM): 1.88 µM
IC50 (second compound 0.1 µM): 3.18 µM
IC50 (second compound 0.316 µM): 3.14 µM
IC50 (second compound 1 µM): 3.09 µM
viability, T/C [1]: 84.6%
viability, T/C [2]: 101%
viability, T/C [3]: 69.9%
viability, T/C [4]: 77.8%
viability, T/C (second compound 0.00316 µM, first compound 3.16 µM): 67.8%
viability, T/C (second compound 0.00316 µM, first compound 10 µM): 7.33%
viability, T/C [5]: 111%
viability, T/C [6]: 116%
viability, T/C [7]: 71.8%
viability, T/C [8]: 78.2%
viability, T/C (second compound 0.01 µM, first compound 3.16 µM): 73.2%
viability, T/C (second compound 0.01 µM, first compound 10 µM): 8.22%
viability, T/C [9]: 122%
viability, T/C [10]: 119%
viability, T/C [11]: 61.8%
viability, T/C [12]: 68.8%
viability, T/C (second compound 0.0316 µM, first compound 3.16 µM): 59.5%
viability, T/C (second compound 0.0316 µM, first compound 10 µM): 4.81%
viability, T/C [13]: 117%
viability, T/C [14]: 116%
viability, T/C [15]: 63.8%
viability, T/C [16]: 73.9%
viability, T/C (second compound 0.1 µM, first compound 3.16 µM): 71.2%
viability, T/C (second compound 0.1 µM, first compound 10 µM): 8.5%
viability, T/C [17]: 111%
viability, T/C [18]: 116%
viability, T/C [19]: 63%
viability, T/C [20]: 77.1%
viability, T/C (second compound 0.316 µM, first compound 3.16 µM): 64.3%
viability, T/C (second compound 0.316 µM, first compound 10 µM): 7.59%
viability, T/C [21]: 122%
viability, T/C [22]: 112%
viability, T/C [23]: 73.5%
viability, T/C [24]: 89%
viability, T/C (second compound 1 µM, first compound 3.16 µM): 53%
viability, T/C (second compound 1 µM, first compound 10 µM): 6.97%

CCN1CCN(Cc2ccc(Nc3ncc(F)c(-c4cc(F)c5nc(C)n(C(C)C)c5c4)n3)nc2)CC1 + C=CC(=O)N1CCN(c2nc(OCC3CCCN3C)nc3c(F)c(-c4nc(N)cc(C)c4C(F)(F)F)c(Cl)cc23)C(C)C1
IC50 (second compound 0.00316 µM): > 1 µM
IC50 (second compound 0.01 µM): > 1 µM
IC50 (second compound 0.0316 µM): > 1 µM
IC50 (second compound 0.1 µM): > 1 µM
IC50 (second compound 0.316 µM): > 1 µM
IC50 (second compound 1 µM): > 1 µM
viability, T/C (second compound 0.00316 µM, first compound 0.00316 µM): 92.8%
viability, T/C (second compound 0.00316 µM, first compound 0.01 µM): 137%
viability, T/C [1]: 93.5%
viability, T/C [2]: 72.2%
viability, T/C [3]: 82.8%
viability, T/C [4]: 119%
viability, T/C (second compound 0.01 µM, first compound 0.00316 µM): 101%
viability, T/C (second compound 0.01 µM, first compound 0.01 µM): 134%
viability, T/C [5]: 98.2%
viability, T/C [6]: 63%
viability, T/C [7]: 79.2%
viability, T/C [8]: 119%
viability, T/C (second compound 0.0316 µM, first compound 0.00316 µM): 163%
viability, T/C (second compound 0.0316 µM, first compound 0.01 µM): 144%
viability, T/C [9]: 109%
viability, T/C [10]: 77.1%
viability, T/C [11]: 61%
viability, T/C [12]: 103%
viability, T/C (second compound 0.1 µM, first compound 0.00316 µM): 135%
viability, T/C (second compound 0.1 µM, first compound 0.01 µM): 124%
viability, T/C [13]: 83.1%
viability, T/C [14]: 87.4%
viability, T/C [15]: 61.1%
viability, T/C [16]: 118%
viability, T/C (second compound 0.316 µM, first compound 0.00316 µM): 141%
viability, T/C (second compound 0.316 µM, first compound 0.01 µM): 136%
viability, T/C [17]: 85%
viability, T/C [18]: 100%
viability, T/C [19]: 58.8%
viability, T/C [20]: 116%
viability, T/C (second compound 1 µM, first compound 0.00316 µM): 117%
viability, T/C (second compound 1 µM, first compound 0.01 µM): 129%
viability, T/C [21]: 89.5%
viability, T/C [22]: 66%
viability, T/C [23]: 78.2%
viability, T/C [24]: 110%

Reference: PubChem BioAssay AID2060899 (Molecular Pharmacology Branch, DTP, NCI, 2025)
